Reference: ChEMBL document CHEMBL2380207, “Recent advances in natural products from plants for treatment of liver diseases” (Eur J Med Chem, 2013)

Assay: Inhibition of Hepatitis C virus protease
Parameters: species or system Hepacivirus hominis

CC1Cc2cccc(O)c2C(=O)O1 (stereo unspecified) [MELLEIN]
IC50: 35 µM
